Experimental data taken from ChEMBL document CHEMBL4414670 (J Nat Prod, 2019).
pIC50: −log10 of the molar value. Activity calls are given as the source filed them. The calls are words filed in the database; no cut-off is given here.

How the values were obtained:
[1] = target: Receptor-type tyrosine-protein phosphatase F (Homo sapiens) (UniProt P10586); assay: Inhibition of LAR (unknown origin) using DiFMUP as substrate at 100 uM incubated for 30 mins followed by substrate addition at pH 6.5 by standard phosphatase assay based fluorescence analysis
Receptor-type tyrosine-protein phosphatase F (Homo sapiens), sequence (P10586 whole entry): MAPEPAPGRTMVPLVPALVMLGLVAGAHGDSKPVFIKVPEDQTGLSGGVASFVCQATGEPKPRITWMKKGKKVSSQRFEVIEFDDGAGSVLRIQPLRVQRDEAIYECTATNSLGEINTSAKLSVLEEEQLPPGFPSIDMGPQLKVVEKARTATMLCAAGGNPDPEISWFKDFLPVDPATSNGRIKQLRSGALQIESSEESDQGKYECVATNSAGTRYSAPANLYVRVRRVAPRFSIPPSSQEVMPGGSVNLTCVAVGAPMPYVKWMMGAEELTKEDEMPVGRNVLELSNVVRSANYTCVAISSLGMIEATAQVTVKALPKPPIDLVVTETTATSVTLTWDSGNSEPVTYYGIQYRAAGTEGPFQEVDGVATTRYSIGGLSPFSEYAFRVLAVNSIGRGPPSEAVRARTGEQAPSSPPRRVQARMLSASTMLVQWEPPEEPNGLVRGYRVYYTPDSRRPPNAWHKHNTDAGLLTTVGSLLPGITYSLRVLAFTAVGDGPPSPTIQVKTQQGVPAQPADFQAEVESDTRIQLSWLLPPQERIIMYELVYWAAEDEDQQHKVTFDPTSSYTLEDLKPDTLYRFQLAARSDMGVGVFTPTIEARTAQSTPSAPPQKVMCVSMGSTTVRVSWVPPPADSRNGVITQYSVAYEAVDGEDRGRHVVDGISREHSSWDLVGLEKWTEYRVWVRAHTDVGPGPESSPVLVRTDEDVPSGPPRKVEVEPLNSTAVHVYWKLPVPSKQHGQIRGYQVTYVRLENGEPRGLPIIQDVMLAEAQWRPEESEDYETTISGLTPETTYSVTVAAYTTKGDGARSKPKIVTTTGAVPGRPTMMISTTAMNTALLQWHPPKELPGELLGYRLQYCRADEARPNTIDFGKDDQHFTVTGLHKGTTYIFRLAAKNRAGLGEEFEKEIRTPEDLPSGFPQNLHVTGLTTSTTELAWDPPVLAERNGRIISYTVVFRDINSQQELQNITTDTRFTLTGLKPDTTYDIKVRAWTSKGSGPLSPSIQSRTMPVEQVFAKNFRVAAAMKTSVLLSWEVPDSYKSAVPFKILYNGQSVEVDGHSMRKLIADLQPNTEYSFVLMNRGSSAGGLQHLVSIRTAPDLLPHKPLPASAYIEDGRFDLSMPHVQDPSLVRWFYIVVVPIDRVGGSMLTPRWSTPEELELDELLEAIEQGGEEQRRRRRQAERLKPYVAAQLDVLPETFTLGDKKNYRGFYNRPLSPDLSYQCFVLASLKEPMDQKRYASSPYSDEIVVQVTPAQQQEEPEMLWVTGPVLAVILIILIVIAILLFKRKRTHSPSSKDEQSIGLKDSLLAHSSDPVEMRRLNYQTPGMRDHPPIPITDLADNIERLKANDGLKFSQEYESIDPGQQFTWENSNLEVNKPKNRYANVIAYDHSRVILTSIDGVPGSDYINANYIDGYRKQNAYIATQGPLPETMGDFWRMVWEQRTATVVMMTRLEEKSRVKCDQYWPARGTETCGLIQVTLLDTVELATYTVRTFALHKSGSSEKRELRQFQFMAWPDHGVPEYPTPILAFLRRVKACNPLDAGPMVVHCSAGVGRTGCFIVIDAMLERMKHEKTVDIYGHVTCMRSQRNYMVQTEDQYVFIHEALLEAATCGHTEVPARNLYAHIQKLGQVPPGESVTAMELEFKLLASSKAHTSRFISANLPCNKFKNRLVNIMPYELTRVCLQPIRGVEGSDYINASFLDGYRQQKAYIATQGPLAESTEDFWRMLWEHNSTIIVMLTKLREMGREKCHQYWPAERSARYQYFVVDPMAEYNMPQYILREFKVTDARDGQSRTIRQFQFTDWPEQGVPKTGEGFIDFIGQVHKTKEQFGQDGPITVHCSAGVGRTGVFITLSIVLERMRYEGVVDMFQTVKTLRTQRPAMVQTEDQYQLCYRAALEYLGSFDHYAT

[2] = target: T1, Tyrosine-protein phosphatase non-receptor type 7 (Homo sapiens, UniProt P35236); assay: Inhibition of HePTP (unknown origin) using DiFMUP as substrate incubated for 30 mins followed by substrate addition at pH 6.5 by standard phosphatase assay based fluorescence analysis
T1 sequence (P35236 whole entry): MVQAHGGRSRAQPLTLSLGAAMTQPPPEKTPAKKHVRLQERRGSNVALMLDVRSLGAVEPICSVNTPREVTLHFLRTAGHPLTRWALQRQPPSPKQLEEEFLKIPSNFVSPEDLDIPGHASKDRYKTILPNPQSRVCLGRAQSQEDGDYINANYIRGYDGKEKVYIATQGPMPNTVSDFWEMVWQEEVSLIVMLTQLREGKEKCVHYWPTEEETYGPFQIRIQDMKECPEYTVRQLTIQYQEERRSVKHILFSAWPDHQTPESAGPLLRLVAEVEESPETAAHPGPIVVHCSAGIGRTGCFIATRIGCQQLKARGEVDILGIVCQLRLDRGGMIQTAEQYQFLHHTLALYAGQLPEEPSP

[3] = target: T2, Tyrosine-protein phosphatase non-receptor type 11 (Homo sapiens, UniProt Q06124); assay: Inhibition of SHP2 (unknown origin) using DiFMUP as substrate incubated for 30 mins followed by substrate addition at pH 6.5 by standard phosphatase assay based fluorescence analysis
T2 sequence (Q06124 whole entry): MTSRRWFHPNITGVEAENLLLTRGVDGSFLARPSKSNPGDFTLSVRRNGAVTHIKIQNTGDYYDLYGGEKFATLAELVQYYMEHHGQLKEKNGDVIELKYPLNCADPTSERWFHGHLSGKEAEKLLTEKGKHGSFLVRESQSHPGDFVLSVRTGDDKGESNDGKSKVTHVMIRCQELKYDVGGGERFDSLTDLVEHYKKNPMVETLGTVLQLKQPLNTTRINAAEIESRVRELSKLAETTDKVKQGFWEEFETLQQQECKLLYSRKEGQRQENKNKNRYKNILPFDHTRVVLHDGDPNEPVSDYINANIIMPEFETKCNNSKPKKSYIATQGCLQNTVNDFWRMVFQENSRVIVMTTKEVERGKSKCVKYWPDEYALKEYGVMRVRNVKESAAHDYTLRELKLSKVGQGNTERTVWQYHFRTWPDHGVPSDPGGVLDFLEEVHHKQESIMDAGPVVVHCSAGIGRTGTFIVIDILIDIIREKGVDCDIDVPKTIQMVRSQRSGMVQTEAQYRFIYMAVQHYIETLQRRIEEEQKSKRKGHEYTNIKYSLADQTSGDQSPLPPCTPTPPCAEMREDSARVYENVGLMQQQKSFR

[4] = target: T3, Tyrosine-protein phosphatase non-receptor type 2 (Homo sapiens, UniProt P17706); assay: Inhibition of TCPTP (unknown origin) using DiFMUP as substrate incubated for 30 mins followed by substrate addition at pH 6.5 by standard phosphatase assay based fluorescence analysis
T3 sequence (P17706 whole entry): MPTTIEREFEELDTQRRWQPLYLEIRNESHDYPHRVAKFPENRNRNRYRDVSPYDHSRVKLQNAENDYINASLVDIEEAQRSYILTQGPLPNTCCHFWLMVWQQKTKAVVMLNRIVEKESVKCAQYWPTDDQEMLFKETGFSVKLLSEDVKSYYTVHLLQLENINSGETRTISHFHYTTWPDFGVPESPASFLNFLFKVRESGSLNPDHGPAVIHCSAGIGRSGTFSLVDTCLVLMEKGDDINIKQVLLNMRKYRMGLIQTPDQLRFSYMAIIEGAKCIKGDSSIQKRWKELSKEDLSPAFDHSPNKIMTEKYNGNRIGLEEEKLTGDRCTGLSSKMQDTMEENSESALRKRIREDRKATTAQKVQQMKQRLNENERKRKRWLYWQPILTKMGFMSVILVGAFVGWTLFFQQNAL

[5] = target: T4, Receptor-type tyrosine-protein phosphatase epsilon (Homo sapiens, UniProt P23469); assay: Inhibition of PTPep (unknown origin) using DiFMUP as substrate incubated for 30 mins followed by substrate addition at pH 6.5 by standard phosphatase assay based fluorescence analysis
T4 sequence (P23469 whole entry): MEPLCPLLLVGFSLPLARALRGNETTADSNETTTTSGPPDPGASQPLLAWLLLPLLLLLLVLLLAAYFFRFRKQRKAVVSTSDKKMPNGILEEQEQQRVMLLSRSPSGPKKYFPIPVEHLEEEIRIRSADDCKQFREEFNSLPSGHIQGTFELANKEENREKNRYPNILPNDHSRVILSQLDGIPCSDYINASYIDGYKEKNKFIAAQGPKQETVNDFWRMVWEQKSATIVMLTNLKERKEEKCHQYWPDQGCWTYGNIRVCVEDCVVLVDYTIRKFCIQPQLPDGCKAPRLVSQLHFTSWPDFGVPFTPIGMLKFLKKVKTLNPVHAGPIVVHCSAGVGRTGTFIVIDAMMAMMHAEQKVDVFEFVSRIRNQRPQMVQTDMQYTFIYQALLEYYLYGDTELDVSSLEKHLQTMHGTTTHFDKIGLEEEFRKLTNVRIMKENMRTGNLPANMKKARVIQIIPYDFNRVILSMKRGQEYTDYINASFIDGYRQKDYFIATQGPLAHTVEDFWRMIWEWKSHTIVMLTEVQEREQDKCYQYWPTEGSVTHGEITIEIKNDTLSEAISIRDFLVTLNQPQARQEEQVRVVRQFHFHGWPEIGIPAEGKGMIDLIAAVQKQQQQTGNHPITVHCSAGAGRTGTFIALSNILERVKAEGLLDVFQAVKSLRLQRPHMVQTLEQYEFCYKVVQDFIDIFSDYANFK

[6] = target: T5, Receptor-type tyrosine-protein phosphatase C (Homo sapiens, UniProt P08575); assay: Inhibition of CD45 (unknown origin) using DiFMUP as substrate incubated for 30 mins followed by substrate addition at pH 6.5 by standard phosphatase assay based fluorescence analysis
T5 sequence (P08575 whole entry): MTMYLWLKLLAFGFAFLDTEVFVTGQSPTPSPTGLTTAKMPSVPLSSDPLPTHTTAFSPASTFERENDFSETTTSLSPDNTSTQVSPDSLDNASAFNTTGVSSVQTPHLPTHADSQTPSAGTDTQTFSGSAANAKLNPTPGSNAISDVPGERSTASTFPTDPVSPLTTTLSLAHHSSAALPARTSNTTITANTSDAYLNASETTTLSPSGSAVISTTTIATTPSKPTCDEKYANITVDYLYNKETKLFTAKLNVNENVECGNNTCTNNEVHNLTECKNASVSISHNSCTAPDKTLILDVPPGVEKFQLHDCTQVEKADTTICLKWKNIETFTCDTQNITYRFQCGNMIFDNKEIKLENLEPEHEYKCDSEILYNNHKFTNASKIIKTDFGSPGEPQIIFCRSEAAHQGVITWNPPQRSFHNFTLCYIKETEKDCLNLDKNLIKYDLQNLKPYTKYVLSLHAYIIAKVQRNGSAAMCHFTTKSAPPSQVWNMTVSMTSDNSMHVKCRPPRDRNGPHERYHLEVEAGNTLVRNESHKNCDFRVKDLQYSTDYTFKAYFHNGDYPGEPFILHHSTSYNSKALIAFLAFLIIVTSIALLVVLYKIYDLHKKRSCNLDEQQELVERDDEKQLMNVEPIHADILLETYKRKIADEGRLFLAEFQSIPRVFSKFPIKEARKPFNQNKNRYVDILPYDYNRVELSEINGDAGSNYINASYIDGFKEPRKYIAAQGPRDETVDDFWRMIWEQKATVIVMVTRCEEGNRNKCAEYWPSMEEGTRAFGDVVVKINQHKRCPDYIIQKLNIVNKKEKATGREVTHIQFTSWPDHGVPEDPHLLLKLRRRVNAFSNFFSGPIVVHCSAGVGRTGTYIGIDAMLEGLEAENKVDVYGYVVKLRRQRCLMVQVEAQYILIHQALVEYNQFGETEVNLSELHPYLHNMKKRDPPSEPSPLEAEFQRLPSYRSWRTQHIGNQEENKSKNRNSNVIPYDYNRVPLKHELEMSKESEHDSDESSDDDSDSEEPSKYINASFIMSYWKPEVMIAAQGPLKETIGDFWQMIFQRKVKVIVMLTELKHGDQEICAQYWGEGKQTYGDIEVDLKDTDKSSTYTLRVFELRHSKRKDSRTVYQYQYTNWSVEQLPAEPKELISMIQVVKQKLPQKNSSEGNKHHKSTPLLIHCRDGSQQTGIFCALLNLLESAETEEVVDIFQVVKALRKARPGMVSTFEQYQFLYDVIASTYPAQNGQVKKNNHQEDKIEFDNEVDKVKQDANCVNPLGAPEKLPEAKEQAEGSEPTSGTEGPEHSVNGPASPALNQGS

[7] = target: Receptor-type tyrosine-protein phosphatase F (Homo sapiens) (UniProt P10586); assay: Inhibition of LAR (unknown origin) assessed as time required for half of the protein to be covalently modified using DiFMUP as substrate incubated for 15 to 120 mins followed by substrate addition at pH 6.5 by standard phosphatase assay based fluorescence analysis
[8] = target: T6, Receptor-type tyrosine-protein phosphatase C (Homo sapiens) (UniProt P08575); assay: Inhibition of CD45 (unknown origin) using DiFMUP as substrate at 100 uM incubated for 30 mins followed by substrate addition at pH 6.5 by standard phosphatase assay based fluorescence analysis
T6 sequence (whole entry): T5 sequence (P08575 whole entry)

[9] = target: T7, Receptor-type tyrosine-protein phosphatase mu (Homo sapiens, UniProt P28827); assay: Inhibition of PTPmu (unknown origin) using DiFMUP as substrate at 100 uM incubated for 30 mins followed by substrate addition at pH 6.5 by standard phosphatase assay based fluorescence analysis
T7 sequence (P28827 whole entry): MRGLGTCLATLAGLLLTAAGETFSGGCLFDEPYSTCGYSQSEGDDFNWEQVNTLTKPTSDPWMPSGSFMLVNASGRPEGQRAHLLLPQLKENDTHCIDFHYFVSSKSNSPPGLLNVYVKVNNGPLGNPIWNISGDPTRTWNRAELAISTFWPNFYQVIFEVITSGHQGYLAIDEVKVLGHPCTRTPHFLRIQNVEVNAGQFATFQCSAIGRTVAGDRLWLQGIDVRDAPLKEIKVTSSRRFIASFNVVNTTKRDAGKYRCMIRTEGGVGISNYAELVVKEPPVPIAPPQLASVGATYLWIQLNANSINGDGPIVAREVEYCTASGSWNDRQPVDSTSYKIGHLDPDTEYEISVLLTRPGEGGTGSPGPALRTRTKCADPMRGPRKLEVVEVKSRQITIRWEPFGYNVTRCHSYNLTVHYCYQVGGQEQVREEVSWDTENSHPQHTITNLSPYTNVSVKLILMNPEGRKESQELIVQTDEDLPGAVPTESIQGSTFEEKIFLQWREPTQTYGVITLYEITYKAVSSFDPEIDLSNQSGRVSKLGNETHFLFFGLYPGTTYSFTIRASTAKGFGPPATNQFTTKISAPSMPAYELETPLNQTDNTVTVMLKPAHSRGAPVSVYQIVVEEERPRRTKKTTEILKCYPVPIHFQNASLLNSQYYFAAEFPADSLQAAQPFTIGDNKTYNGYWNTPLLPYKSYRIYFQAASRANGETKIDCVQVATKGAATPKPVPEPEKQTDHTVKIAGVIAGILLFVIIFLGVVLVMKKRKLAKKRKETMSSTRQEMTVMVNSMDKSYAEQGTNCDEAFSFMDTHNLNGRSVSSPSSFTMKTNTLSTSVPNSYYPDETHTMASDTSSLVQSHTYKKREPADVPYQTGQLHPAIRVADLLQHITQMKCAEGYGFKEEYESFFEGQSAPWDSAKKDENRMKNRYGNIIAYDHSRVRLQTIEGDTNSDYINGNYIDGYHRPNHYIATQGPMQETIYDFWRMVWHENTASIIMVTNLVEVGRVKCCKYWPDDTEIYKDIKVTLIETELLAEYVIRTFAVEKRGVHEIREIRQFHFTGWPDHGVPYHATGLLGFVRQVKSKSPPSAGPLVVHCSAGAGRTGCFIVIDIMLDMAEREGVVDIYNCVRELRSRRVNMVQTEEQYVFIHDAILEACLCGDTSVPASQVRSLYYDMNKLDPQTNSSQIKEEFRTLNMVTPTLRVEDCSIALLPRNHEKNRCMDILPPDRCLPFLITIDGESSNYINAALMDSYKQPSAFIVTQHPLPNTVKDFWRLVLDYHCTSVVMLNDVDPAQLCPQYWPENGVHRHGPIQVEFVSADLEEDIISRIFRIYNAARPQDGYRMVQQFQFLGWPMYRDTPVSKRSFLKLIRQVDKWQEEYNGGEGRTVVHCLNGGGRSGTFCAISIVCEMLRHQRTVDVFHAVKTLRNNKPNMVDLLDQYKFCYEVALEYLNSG

[10] = target: T6, Receptor-type tyrosine-protein phosphatase C (Homo sapiens); assay: Time dependent inhibition of CD45 (unknown origin) using DiFMUP as substrate at 10 uM incubated for 5 to 120 mins followed by substrate addition at pH 6.5 by standard phosphatase assay based fluorescence analysis; settings: TDE = time-dependent effect
[11] = target: T8, Dual specificity protein phosphatase 3 (Homo sapiens, UniProt P51452); assay: Inhibition of VHR (unknown origin) using DiFMUP as substrate incubated for 30 mins followed by substrate addition at pH 6.5 by standard phosphatase assay based fluorescence analysis
Target sequence in this assay (P51452 whole entry): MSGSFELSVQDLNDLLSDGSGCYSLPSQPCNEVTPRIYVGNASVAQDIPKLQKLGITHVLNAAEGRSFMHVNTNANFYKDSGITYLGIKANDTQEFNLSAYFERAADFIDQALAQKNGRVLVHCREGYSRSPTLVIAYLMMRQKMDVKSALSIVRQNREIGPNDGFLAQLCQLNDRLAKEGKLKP

[12] = target: T9, Tyrosine-protein phosphatase non-receptor type 7 (Homo sapiens) (UniProt P35236); assay: Inhibition of HePTP (unknown origin) using DiFMUP as substrate at 100 uM incubated for 30 mins followed by substrate addition at pH 6.5 by standard phosphatase assay based fluorescence analysis
T9 sequence (whole entry): T1 sequence (P35236 whole entry)

[13] = target: T7, Receptor-type tyrosine-protein phosphatase mu; assay: Time-dependent inhibition of PTPmu (unknown origin) using DiFMUP as substrate at 10 uM incubated for 5 to 120 mins followed by substrate addition at pH 6.5 by standard phosphatase assay based fluorescence analysis; settings: TDE = time-dependent effect
[14] = target: T7, Receptor-type tyrosine-protein phosphatase mu; assay: Inhibition of PTPmu (unknown origin) using DiFMUP as substrate incubated for 30 mins followed by substrate addition at pH 6.5 by standard phosphatase assay based fluorescence analysis
[15] = target: T8, Dual specificity protein phosphatase 3; assay: Inhibition of VHR (unknown origin) using DiFMUP as substrate at 100 uM incubated for 30 mins followed by substrate addition at pH 6.5 by standard phosphatase assay based fluorescence analysis
Target sequence in this assay (P51452 whole entry, looked up): as the sequence (P51452 whole entry) above

[16] = target: T10, Tyrosine-protein phosphatase non-receptor type 11 (Homo sapiens) (UniProt Q06124); assay: Inhibition of SHP2 (unknown origin) using DiFMUP as substrate at 100 uM incubated for 30 mins followed by substrate addition at pH 6.5 by standard phosphatase assay based fluorescence analysis
T10 sequence (whole entry): T2 sequence (Q06124 whole entry)

[17] = target: T11, Tyrosine-protein phosphatase non-receptor type 2 (Homo sapiens) (UniProt P17706); assay: Inhibition of TCPTP (unknown origin) using DiFMUP as substrate at 100 uM incubated for 30 mins followed by substrate addition at pH 6.5 by standard phosphatase assay based fluorescence analysis
T11 sequence (whole entry): T3 sequence (P17706 whole entry)

[18] = target: Receptor-type tyrosine-protein phosphatase F (Homo sapiens) (UniProt P10586); assay: Inhibition of LAR (unknown origin) using DiFMUP as substrate incubated for 30 mins followed by substrate addition at pH 6.5 by standard phosphatase assay based fluorescence analysis
[19] = target: T4, Receptor-type tyrosine-protein phosphatase epsilon; assay: Inhibition of PTPep (unknown origin) using DiFMUP as substrate at 100 uM incubated for 30 mins followed by substrate addition at pH 6.5 by standard phosphatase assay based fluorescence analysis
[20] = target: Low molecular weight phosphotyrosine protein phosphatase (Homo sapiens) (UniProt P24666); assay: Inhibition of LMWPTP (unknown origin) using DiFMUP as substrate at 100 uM incubated for 30 mins followed by substrate addition at pH 6.5 by standard phosphatase assay based fluorescence analysis
Low molecular weight phosphotyrosine protein phosphatase (Homo sapiens), sequence (P24666 whole entry, looked up): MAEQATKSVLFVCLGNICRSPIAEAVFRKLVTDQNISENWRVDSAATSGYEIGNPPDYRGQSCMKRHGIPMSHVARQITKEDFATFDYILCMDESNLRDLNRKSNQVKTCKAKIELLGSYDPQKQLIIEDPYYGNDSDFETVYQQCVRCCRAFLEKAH

[21] = target: Receptor-type tyrosine-protein phosphatase F (Homo sapiens) (UniProt P10586); assay: Time-dependent inhibition of LAR (unknown origin) using DiFMUP as substrate at 1 uM incubated for 15 to 120 mins followed by substrate addition at pH 6.5 by standard phosphatase assay based fluorescence analysis; settings: TDE = time-dependent effect
[22] = target: Receptor-type tyrosine-protein phosphatase F (Homo sapiens) (UniProt P10586); assay: Time-dependent inhibition of LAR (unknown origin) using DiFMUP as substrate at 50 uM incubated for 15 to 120 mins followed by substrate addition at pH 6.5 by standard phosphatase assay based fluorescence analysis; settings: TDE = time-dependent effect

Row | inhibition [1] | pIC50 [2] | pIC50 [3] | pIC50 [4] | pIC50 [5] | pIC50 [6] | inhibition [8] | inhibition [9] | pIC50 [11] | inhibition [12] | pIC50 [14] | inhibition [15] | inhibition [16] | inhibition [17] | inhibition [19] | inhibition [20] | SMILES | further results
1 | Active | < 4.00 | 4.54 | < 4.00 | < 4.00 | 5.00 | Active | Active | < 4.00 | inactive | 4.80 | inactive | Active | inactive | inactive | inactive | CC1(C)Cc2c(O)c(C=O)c3c(c2C1)C(=O)OC(O)C3 (configuration not stated) [ILLUDALIC ACID] | T1/2 [7]: 30 s; inhibition [10]: Tde; inhibition [13]: Tde; inhibition [18]: Dose-dependent effect; inhibition [21]: Tde
2 | inactive |  |  |  |  |  | inactive | inactive |  | inactive |  | inactive | inactive | inactive | inactive | inactive | COc1ccc2c(c1C=O)CC(O)OC2=O (configuration not stated) | 
3 | Active | < 4.00 | < 4.00 | < 4.00 | < 4.00 | < 4.00 | inactive | inactive | < 4.00 | inactive | < 4.00 | inactive | inactive | inactive | inactive | inactive | COc1c(C=O)c2c(c3c1CC(C)(C)C3)C(=O)OC(O)C2 (configuration not stated) | inhibition [22]: Tde
